Assay [1] has as its target T1, Axl (Homo sapiens, UniProt P30530).
T1 sequence (P30530 26-894): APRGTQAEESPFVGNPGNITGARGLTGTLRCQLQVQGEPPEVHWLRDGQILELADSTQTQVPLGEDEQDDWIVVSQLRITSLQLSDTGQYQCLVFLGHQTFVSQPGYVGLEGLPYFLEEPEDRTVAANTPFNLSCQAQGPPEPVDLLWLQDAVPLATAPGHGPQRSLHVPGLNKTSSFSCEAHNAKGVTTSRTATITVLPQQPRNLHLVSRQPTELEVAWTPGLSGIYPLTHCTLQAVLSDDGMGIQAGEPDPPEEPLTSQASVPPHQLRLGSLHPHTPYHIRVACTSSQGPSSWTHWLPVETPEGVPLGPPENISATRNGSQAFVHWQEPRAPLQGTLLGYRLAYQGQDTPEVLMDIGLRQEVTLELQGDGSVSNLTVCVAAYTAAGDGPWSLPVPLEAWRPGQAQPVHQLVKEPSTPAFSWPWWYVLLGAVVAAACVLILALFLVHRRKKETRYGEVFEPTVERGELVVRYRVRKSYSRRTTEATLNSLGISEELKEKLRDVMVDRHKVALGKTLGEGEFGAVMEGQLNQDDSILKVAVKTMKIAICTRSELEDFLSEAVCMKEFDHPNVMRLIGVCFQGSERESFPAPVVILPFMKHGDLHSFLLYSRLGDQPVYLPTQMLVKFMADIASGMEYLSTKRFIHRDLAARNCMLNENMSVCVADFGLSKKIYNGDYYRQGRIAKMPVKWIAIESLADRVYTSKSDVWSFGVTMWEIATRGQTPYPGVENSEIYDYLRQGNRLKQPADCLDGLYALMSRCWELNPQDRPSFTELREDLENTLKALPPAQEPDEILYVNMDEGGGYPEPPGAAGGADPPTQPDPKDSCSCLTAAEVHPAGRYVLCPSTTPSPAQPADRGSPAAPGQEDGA
Put plainly: HTRF KinEASE-TK biochemical potency, AXL. The settings on record: 5 nM AXL, 700 μM ATP. More on the design: purchased Invitrogen. On the procedure:
(§1) Purified recombinant human AXL, TYRO3 and MER proteins were purchased from Invitrogen™. 10 nM AXL, 2 nM TYRO3 or MER were incubated with varying concentrations of compounds in 50 mM HEPES, pH 7.4, 10 mM MgCl2, 0.01% BSA, 1 mM DTT and 2% DMSO in a total volume of 20 μl in a 384-well microplate (Corning™ #3640) at RT for 1 h. The AXL, TYRO3 and MER enzymatic reaction was initiated by transferring 10 μl of enzyme and compound mixture into 10 μl of 1.6 μM TK Substrate-biotin (HTRF® KinEASE-TK kit, Cisbio) and 1400 μM ATP pre-incubated in 50 mM HEPES, pH 7.4, 10 mM MgCl2, 0.01% BSA, 1 mM DTT in a 384-well microplate (Corning™ #3640) at RT, giving the final reaction conditions: 5 nM AXL, 1 nM TYRO3 or MER, 800 nM TK Substrate-biotin and 700 μM ATP in 50 mM HEPES, pH 7.4, 10 mM MgCl2, 0.01% BSA, 1 mM DTT and 1% DMSO with varying concentrations of compounds. Following 2 h incubation at RT, the AXL, TYRO3 and MER enzymatic reaction was stopped by transfer of 10 μl of reaction into 10 μl of detection mix (400 nM Streptavidin-XL665, 200-fold dilution TK Antibody-Cryptate and detection buffer, HTRF® KinEASE-TK kit, Cisbio) in a white 384-well microplate (Perkin Elmer, OptiPlate 384). After 1 h incubation at RT, the plate was put into a plate reader (Evision) to read at 665/620 nm (acceptor/donor) for HTRF. The value of the DMSO blank (MIN inhibition=100% activity) was used as a negative control. The positive control was established by adding 5 μl of enzyme and DMSO mixture into 10 μl of detection mix followed by addition of 5 μl of TK Substrate-biotin and ATP mixture (MAX inhibition=0% activity). To calculate the percent activity, Equation 1 was used. Ratio665/620 is the value at a given compound concentration: […]
For orientation: TR-FRET usually uses a lanthanide donor and a delayed reading to cut background.

Assay [2] addresses T1, Axl. Put plainly: Axl NanoBRET intracellular kinase assay (Cell Binding). More on the design: host or cells: HEK-293. The settings on record: HEK-293 cells transfected with Axl-NanoLuc fusion vector; displacement of K-5 NanoBRET tracer. On the procedure:
Axl NanoBRET™ intracellular kinase assay (Promega, N2540) was performed according to manufacturer's recommendation. In brief, HEK-293 cells are transiently transfected with Axl-NanoLuc fusion vector (Promega, NV1071), utilizing Fugene HD transfection reagent (Promega, E2311) a day before experiment following manufacturer's recommendation.
The day of the assay, the cells were collected and resuspended in Opti-MEM media (ThermoFisher, 31985070) at 2e5 cells/mL concentration. Testing compounds were serial diluted and dispensed into a white 384 well polystyrene plate at 200 nL in 100% DMSO. 40 μL of resuspended cells is then added per well for a final condition of 8K cells/well with 0.5% DMSO. After one-hour compound pre-incubation at 37° C. and 5% CO2, cells were further incubated with 0.35 μM K-5 NanoBRET tracer for two-hours at 37° C. and 5% CO2. […] of 3× substrate plus Inhibitor solution was prepared according to kits manual and added to the cells followed by a 30 second pulse centrifugation spin. The plate was then immediately read utilizing an Envision (Perkin Elmer) plate reader. The BRET signal is measured by taking the ratio of the emissions reading at 610 nm and 450 nm. Compound binding is based on the decrease BRET signal caused by the displacement of the K-5 tracer. […] IC50 value of compounds was determined by 4-parameter non-linear regression fitting of percent activity in GraphPad Prism software.
Background: In BRET a luciferase serves as donor, and the signal depends on an acceptor being close.

Assay [3] has as its target T2, recombinant human TYRO3 (Homo sapiens, UniProt Q06418).
T2 construct: purchased Invitrogen
T2 sequence (Q06418 41-890): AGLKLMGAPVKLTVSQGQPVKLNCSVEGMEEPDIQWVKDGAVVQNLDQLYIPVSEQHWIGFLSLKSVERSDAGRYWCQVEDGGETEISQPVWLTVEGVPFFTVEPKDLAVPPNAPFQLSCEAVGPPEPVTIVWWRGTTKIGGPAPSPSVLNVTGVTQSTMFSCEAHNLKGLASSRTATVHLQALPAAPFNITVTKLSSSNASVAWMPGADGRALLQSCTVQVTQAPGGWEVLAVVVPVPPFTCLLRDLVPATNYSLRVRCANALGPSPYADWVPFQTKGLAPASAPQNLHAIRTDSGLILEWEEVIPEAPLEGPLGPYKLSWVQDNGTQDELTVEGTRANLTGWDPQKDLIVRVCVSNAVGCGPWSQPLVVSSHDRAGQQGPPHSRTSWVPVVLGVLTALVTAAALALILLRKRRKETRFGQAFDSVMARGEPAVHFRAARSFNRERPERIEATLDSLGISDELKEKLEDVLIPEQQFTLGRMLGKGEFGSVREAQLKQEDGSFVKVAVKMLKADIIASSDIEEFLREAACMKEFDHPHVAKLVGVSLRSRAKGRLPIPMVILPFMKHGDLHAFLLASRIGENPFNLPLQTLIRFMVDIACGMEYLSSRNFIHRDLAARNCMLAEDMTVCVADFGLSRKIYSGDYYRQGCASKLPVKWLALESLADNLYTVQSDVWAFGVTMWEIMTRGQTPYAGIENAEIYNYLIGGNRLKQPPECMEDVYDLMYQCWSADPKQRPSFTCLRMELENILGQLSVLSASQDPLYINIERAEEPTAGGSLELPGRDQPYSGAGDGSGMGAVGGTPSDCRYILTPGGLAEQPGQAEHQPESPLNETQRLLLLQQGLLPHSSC
Put plainly: HTRF KinEASE-TK biochemical potency, TYRO3. The settings on record: 1 nM TYRO3, 700 μM ATP. On the procedure: as §1

A value given as a limit tells only on which side of the number the result lay.

The record followed here is US20240226115A1, “AXL INHIBITOR COMPOUNDS” (ARCUS BIOSCIENCES, INC., priority 2021, published 2024).

Consider `O=C1NCCOc2cc(-c3n[nH]c4ncc(-c5cc(Cl)c6c(c5)CCN(C5CCCC5)C6)cc34)ccc21` [Example 8, 8-[5-(8-Chloro-2-cyclopentyl-1,2,3,4-tetrahydroisoquinolin-6-yl)-1H-pyrazolo[3,4-b]pyridin-3-yl]-2,3,4,5-tetrahydro-1,4-benzoxazepin-5-one], for which the half-maximal inhibitory concentration (IC50) (in general, the point on the concentration scale where inhibition reaches its midpoint) in assay [1] was 100 to 1000 nM; in assay [2], more than 1000 nM.
Take `FC1(F)Oc2ccc(-c3n[nH]c4ncc(-c5ccc6c(c5)CCN(C5CCCC5)CC6)cc34)cc2O1` [Example 14, 3-Cyclopentyl-7-(3-(2,2-difluorobenzo[d][1,3]dioxol-5-yl)-1H-pyrazolo[3,4-b]pyridin-5-yl)-2,3,4,5-tetrahydro-1H-benzo[d]azepine]: the IC50 in assay [1] and in assay [2] was more than 1000 nM in each case.
For the molecule `CS(=O)(=O)N1CCc2ccc(-c3cnc4[nH]nc(-c5ccc6c(c5)OCCNC6=O)c4c3)cc2CC1` [Example 18, 8-[5-(3-Methanesulfonyl-2,3,4,5-tetrahydro-1H-3-benzazepin-7-yl)-1H-pyrazolo[3,4-b]pyridin-3-yl]-2,3,4,5-tetrahydro-1,4-benzoxazepin-5-one], the IC50 in assay [1] is less than 100 nM; in assay [3] it was less than 100 nM; in assay [2] it was more than 1000 nM.
